Test results reported in patent EP0499337A1, “Use of tetra:hydro-thieno-pyrido-indole derivatives for the treatment of skin disorders” (YAMANOUCHI EUROPE B.V., priority 1991, dated 1992).
Where two headings read alike, the source gives them in different places.

What was measured:
[1] = test system: TPA-induced edema and hyperproliferation in mouse skin; assay: Topical application, TPA-induced edema and hyperproliferation in mouse skin; assay type: in vivo, Hairless mice (hr/hr; male); conditions: with 0.01 wt% TPA
Description: Hairless mice (hr/hr; male) were treated on their backs with 10 µl of a 0.01 wt% solution of 12-O-tetradecanoylphorbol-13-acetate (TPA) in a 80/20 mixture of acetone/water, further containing the test substances cyclosporin A, sphingosine or tiflucarbine. Per mouse, 4 application sites were used: one application site was treated with only TPA (control) and one with only vehicle (blanco), two with experimental formulations, according to a roulation scheme. 6 mice were treated per experiment. Skin fold thickness was determined before treatment (t=0) and 6 and 24 h after treatment, as a measure of edema. After 72 h the epidermis (15 mm punch biopsy) was separated with 2 M KBr and dissolved in 0.1 M NaOH for determination of the amount of protein, as a measure of hyperproliferation. In one experiment tiflucarbine was compared with cyclosporin A, in a second experiment with sphingosine.

PMHL = assay: Nonspecific cytotoxicity, trypane blue exclusion test; assay type: cell-based, human
Description: Nonspecific cytotoxicity of the test compounds on PMHL was assessed by […] blue exclusion test.

HaCaT cells [2] = assay: Proliferation of HaCaT cells (incorporation of [3H]-thymidine and [14C]-amino acids, total protein content of attached cells); assay type: cell-based; conditions: Homo sapiens, all parameters measured ([3H]-thymidine, [14C]-amino acids, total protein content), 48 h incubation with compound, read-out: IC₅₀ values, inhibition of proliferation
Excerpt: HaCaT cells are spontaneously immortalized aneuploid human keratinocytes prepared according to J. Cell. Biol. (1988), 106: 761-771. They can be substituted, however, by SVK₁₄ cells [Taylor-Papadimitriou et al. (1982), J. Cell Differentiat. 11: 169-180] or freshly isolated human keratinocytes [Rheinwald and Green (1975), Cell 6: 331-344].
The HaCaT cells (or the other cells) were routinely grown in Dulbecco's modified essential medium (DMEM) supplemented with 1% antibiotic-antimycotic solution, 4 mM L-glutamine and 10% fetal calf serum in culture flasks (T 175; Falcon Labware, Oxuard, CA, USA). Proliferation tests were carried out with passages 90-95 (for HaCaT-cells) and passages 3-6 (for NHEK's) in 24 well plates (Greiner, Solingen, FRG) as described below. All incubations were performed at 37°C in a humidified atmosphere with 10% CO₂. […]
Proliferation of HaCaT cells was assayed by three different parameters: incorporation of [³H]-thymidine, incorporation of [¹⁴C]-amino acids and the increase of protein content of attached cells. […] Thereafter, the filters were treated with 0.5 ml PROTOSOL®-solution (NEN, Bad Homburg, FRG) at 60°C for 1 h and radioactivity was assessed by liquid scintillation counting. […]
For determination of total protein content, cells were washed twice with methanol. […] Concentration of protein was determined spectrophotometrically using bovine serum albumin as a standard. […]

PKC = conditions: in-vitro tests; Hegemann et al. (1989); cited from earlier work
[3] = test system: human polymorphonuclear leukocytes (PMNL); assay: ROS generation from PMNL, lucigenin-amplified chemiluminescence; assay type: cell-based; conditions: for IC50: Homo sapiens, PMNL
Description: Human PMNL were isolated from fresh blood (anticoagulated with sodium citrate) by erythrocyte sedimentation with 1% dextran (Pharmacia, Uppsala, Sweden) centrifugation of the resulting supernatant, followed by hypoosmotic lysis to remove red blood cells. Washed cells were adjusted to 2 x 10⁶ cells/ml in PBS containing fetal calf serum (2%; v/v). Test compounds dissolved in DMSO were diluted with the assay buffer to a final DMSO concentration of 0.5% (v/v).
Then the test compounds (100 µl) were added with subsequent recording for another 16 min period. […] Results were expressed as percent of inhibition or stimulation of the controls (mean of two integrals) in a single experiment.

[4] = test system: TPA-induced ear edema in mice; assay: Intraperitoneal administration, TPA-induced ear edema in mice; assay type: in vivo; conditions: intraperitoneally, 30 mg/kg, 3 h after challenge
Description: Mice were injected intraperitoneally with 30, 10 or 3.3 mg/kg body weight of the test substances, sphingosine in carboxymethylcellulose (0.5%) and tiflucarbine in physiologic Saline, 10 ml/kg body weight. After 60 minutes the mire were challenged on the left ear with a 0.01 wt% solution of 12-O-tetradecanoylphorbol-13-acetate (TPA) in a 80/20 mixture of acetone/water. At 0, 3, 6 and 24 h after challenge, ear thickness was determined.

HaCaT cells [5] = test system: HaCaT cells
Description: HaCaT cells were grown as described.
Cytotoxicity was assessed by measurements of the content of intracellular lactate dehydrogenase (LDH) activity released into the culture medium during 48 h after onset of drug exposure. Possible drug induced detachment of the HaCaT cells from the plate was assessed by collection of the medium from the wells and centrifugation (80 x g, 10 min.) The resulting pellet was suspended in 10 µl medium and cells were counted in a haemocytometer.

## CCN1CCc2[nH]c3cc(F)c4scc(C)c4c3c2C1 [Tiflucarbine, 1-methyl-9-ethyl-4-fluoro-7,8,9,10-tetra:hydro-thieno-[3,2-e]-pyrido-[4,3-b]-indole lactate]
[1]; 6 and 24 h after treatment
  edema (skin fold thickness): reduces edema at 0.5, 1 and 2.5%
[1]; after 72 h
  hyperproliferation (amount of epidermal protein): reduces hyperproliferation only at 1 and 2.5%
PMHL
  Trypane blue: 300 µM
HaCaT cells [2]
  IC50: 10 to 17 µM
PKC
  PKC activity: significantly inhibit PKC activity
[3]; 16 min, compound added at peak, 16 min after opsonized zymosan, IC₅₀-values, read-out: Peak CL
  IC50: 14 µM
[3]; 30 min preincubation, unstimulated, IC₅₀-values, read-out: Spontaneous CL
  IC50: 7.2 µM
[3]; stimulation with opsonized zymosan after preincubation, IC₅₀-values, read-out: Induced CL
  IC50: 7.4 µM
[3]; unstimulated cells and cells stimulated with opsonized zymosan or PMA, read-out: IC₅₀ values, inhibition of ROS generation
  IC50: 7 µM
[3]; both stimuli (opsonized zymosan, PMA), relative to the IC₅₀ of 7 µM
  inhibition of peak chemiluminescence to 50%, fold higher concentrations: 2-3 fold
[3]; human PMNL, unstimulated
  induction of the release of reactive oxygen species: does not induce the release
[4]
  ear edema (ear thickness): reduced ear edema
HaCaT cells [5]
  toxic concentration: above 300 µM
